The text below walks through data of PMC4671658, “Release of 50 new, drug-like compounds and their computational target predictions for open source anti-tubercular drug discovery” (PLoS ONE, 2015).

Molecules are shown by their SMILES. In brackets after ≈: the same amount, converted by molar mass. Some results are limits rather than exact numbers.

Data set [1] concerns M. tuberculosis H37Rv. Nature of the data set: M. tuberculosis inhibition assay (MABA, resazurin) MIC. In kind it is cell-based. As to conditions: Mycobacterium tuberculosis.
Data set [2] in a line: physchem. Conditions: pH 7.4, kinetic from dmso stock.
A short description of data set [3]: physchem. Conditions: pH 7.4.
For data set [4], the system named is non-replicating M. tuberculosis H37Rv. Nature of the data set: Activity against non-replicating Mycobacterium tuberculosis. As to conditions: non-replicating conditions; for ACT In NR % inhibition: active/inactive call, experiments with inh > 50%.
The subject of data set [5] is M. bovis BCG Pasteur. Nature of the data set: microbe, parasite or virus in culture. In kind it is cell-based, Mycobacterium bovis BCG. As to conditions: for IC50: Mycobacterium tuberculosis variant bovis BCG, BCG, read-out: BCG pIC50 (converted).
For data set [6], the system named is M. tuberculosis H37Rv in infected THP1 cells. Nature of the data set: Intracellular assay (luciferase H37Rv in THP1 cells). In kind it is cell-based, Mycobacterium tuberculosis. Conditions: for IC50: Mycobacterium tuberculosis, H37RV, THP-1, 120 h, read-out: ACT In Intracellular pX50 (converted).
The test system of data set [7] is HepG2 cells. As to conditions: HepG2, 48 h.

Consider `CNc1nc(SC)nnc1-c1cccc(Cl)c1Cl` [TCMDC-143661], for which, in data set [1], the MIC was 2.5 µM (≈ 0.753 µg/mL). This compound also registered a solubility in data set [2] of 85 µg/mL (≈ 282 µM). The same compound showed a chromatographic logD in data set [3] of 4.94. The “ACT In NR % inhibition” value in data set [4] is “INACTIVE”. Further, the figures for the IC50 in data set [5] and in data set [6] were 12600 nM and 794 nM, respectively. The “Mtb specific (inactive against M. bovis BCG)” value in data set [5] (hit in Mtb screen, not in BCG screen) is “Mtb specific”. In addition, the “TOX50 HepG2” value in data set [7] is more than 100 µM.
For `COc1ccc2nccc(NC(=O)C3CCN(CCc4ccc(Cl)cc4)CC3)c2n1` [TCMDC-143649], the MIC in data set [1] turned out to be 0.2 µM (≈ 0.085 µg/mL). Also, the solubility in data set [2] worked out at 4 µg/mL (≈ 9.41 µM). The compound further registered a chromatographic logD in data set [3] of 5.49. For the same compound, in data set [4], the “ACT In NR pXC50” value is 5,1 and the “ACT In NR % inhibition” value is reported as “ACTIVE 7 expts out of 10 with inh > 50%”. In addition, the IC50 in data set [5] is 5010 nM. Besides, in data set [7], the “TOX50 HepG2” value was more than 100 µM.
In turn, `O=C(NCc1ccco1)N1CCN(Cc2ccc(Cl)s2)CC1` [TCMDC-143653] returned a minimal inhibitory concentration (MIC) in data set [1] of 2 µM (≈ 0.68 µg/mL). For the same compound, the solubility in data set [2] amounted to 98 µg/mL (≈ 288 µM). The compound also returned a chromatographic logD in data set [3] of 4.82. Moreover, the “ACT In NR % inhibition” value in data set [4] was “INACTIVE”. The IC50 is 1260 nM in data set [5] and 2510 nM in data set [6]. Besides, the “TOX50 HepG2” value in data set [7] is more than 100 µM.
With `NS(=O)(=O)c1ccc(Nc2cnc3ccccc3n2)cc1` [TCMDC-143656], it took 2 µM (≈ 0.601 µg/mL) to inhibit growth in data set [1] (MIC). In data set [2], this compound returned a solubility of 112 µg/mL (≈ 373 µM). This compound gave a chromatographic logD in data set [3] of 1.07. Further, in data set [4], the “ACT In NR % inhibition” value is listed as “INACTIVE”. Moreover, in data set [5], the IC50 is 6310 nM. Also, in data set [7], the “TOX50 HepG2” value was more than 100 µM.
For the compound `CCCC/C=C/c1cc2ccncc2cc1OC1CCNCC1` [TCMDC-143651], in data set [1], the MIC came out at 1.6 µM (≈ 0.497 µg/mL). The compound also registered a solubility in data set [2] of 36 µg/mL (≈ 116 µM). Further, in data set [3], the chromatographic logD worked out at 3.61. The “ACT In NR % inhibition” value in data set [4] is given as “INACTIVE”. In addition, the values for the IC50 in data set [5] and in data set [6] were 2510 nM and 1260 nM, respectively. The “TOX50 HepG2” value in data set [7] is 16 µM.
In data set [1], `O=C(NCc1ccco1)N1CCN(Cc2ccc3c(c2)OCO3)CC1` [TCMDC-143650] yielded a minimum inhibitory concentration (MIC) of 1.25 µM (≈ 0.429 µg/mL). The solubility in data set [2] was 86 µg/mL (≈ 250 µM). In data set [3], this compound had a chromatographic logD of 3.48. Further, the “ACT In NR % inhibition” value in data set [4] is “INACTIVE”. Further, in data set [5], the IC50 is 1260 nM. In data set [7], the “TOX50 HepG2” value is more than 100 µM.
`O=C(NCc1ccco1)N1CCN(Cc2ccc3c(c2)CCO3)CC1` [TCMDC-143652] showed a minimal inhibitory concentration (MIC) in data set [1] of 2 µM (≈ 0.683 µg/mL). Further, in data set [2], the concentration in solution (solubility) came to 88 µg/mL (≈ 258 µM). The same compound showed a chromatographic logD in data set [3] of 3.47. Further, the “ACT In NR % inhibition” value in data set [4] is “INACTIVE”. The IC50 in data set [5] was 2510 nM. Besides, the “TOX50 HepG2” value in data set [7] was more than 100 µM.
Consider `NCC(c1cccs1)S(=O)(=O)c1ccccc1` (centres unmarked) [TCMDC-143655], for which the MIC in data set [1] came out at 2 µM (≈ 0.535 µg/mL). The compound further showed a solubility in data set [2] of 134 µg/mL (≈ 501 µM). In data set [3], this compound displayed a chromatographic logD of 2.5. Moreover, in data set [4], the “ACT In NR % inhibition” value is listed as “INACTIVE”. The IC50 in data set [5] is 5010 nM. Further, in data set [7], the “TOX50 HepG2” value was found to be 32 µM.
In the case of `Cc1ccc2oc(SCC(=O)Nc3nccs3)nc2n1` [TCMDC-143682], the “Inhibition of intracellular growth (active = pIC50 above 5)” value in data set [6] (THP1 cells, the one compound of 26 tested that was not active) was “all but one (TCMDC-143682) were active”.
`Nc1ccccc1Nc1ccc(Cl)cc1` [TCMDC-143654] showed an MIC in data set [1] of 2 µM (≈ 0.437 µg/mL). Also, the solubility in data set [2] was 59 µg/mL (≈ 270 µM). Besides, the chromatographic logD in data set [3] came to 5.76. In addition, in data set [4], the “ACT In NR pXC50” value is given as 4,5 and the “ACT In NR % inhibition” value is reported as “ACTIVE 8 expts out of 11 with inh > 50%”. Moreover, the IC50 in data set [5] was 100 nM. In addition, in data set [6], the IC50 is 15.8 nM. Also, the “TOX50 HepG2” value in data set [7] was 79 µM.
